Data on 89 molecules can be found in PubChem BioAssay AID1159563 (GlaxoSmithKline (GSK), 2015).

Calls of active or inactive are those of the source. No rule for the calls is given here. Where only a bound is given, the exact number is not on record here.

One may read the IC50 as the point on the concentration scale where inhibition reaches its midpoint.

The assay deals with HepG2 cytotoxicity. The experiment in a line: human hepatoma cell viability loss – cytotoxicity control (AID 1159563).
With `Fc1ccccc1N1C[C@H]2CCN(c3cccnc3)C[C@H]2C1`, the IC50 was > 100 µM (inactive).
With `O=[N+]([O-])c1ccc(-c2nnn(-c3ccc(Cl)cc3)n2)o1`, the IC50 is > 100 µM (inactive).
On to `Cc1ccc(NC(=O)c2ccnc(N3CCCC3)c2)cc1-c1cc(C(N)=O)ccc1C`, for which the IC50 is > 100 µM (inactive).
With `Cc1cc(Nc2cc(C3CC3)[nH]n2)nc(N2CCC[C@H]2C(N)=O)n1` the figure was > 100 µM (inactive).
With `COc1ccc([N+](=O)[O-])cc1NC(=O)c1cc(Cl)ccc1O` the figure was 10 µM.
In the case of `Cc1nc(N2CC(C)OC(C)C2)sc1C(=O)Nc1ccc2c(c1)OCO2` (centres undefined), the IC50 is > 100 µM (inactive).
Regarding `COc1ccccc1C=CCN1C[C@H]2CCC[C@@H](C1)C2(O)c1cccnc1` (some centres undefined), the IC50 was > 100 µM (inactive).
With `CN(C)Cc1ccc(-c2ccc(S(=O)(=O)NCC3CCCO3)c(F)c2)cc1` (centres undefined) the figure was > 130 µM (inactive); with `COc1ccc(Nc2nccc(N(C)c3n[nH]c4c(F)cccc34)n2)cc1S(C)(=O)=O`, 20 µM.
With `NC(=O)c1cc(F)ccc1Nc1nc(NC2CCC(O)CC2)ncc1Cl` (centres undefined) the figure was > 100 µM (inactive); with `CC(C)(C)C(=O)NCCc1csc(-c2ccc(F)cc2)n1`, > 100 µM (inactive).
As for `CC(=O)Nc1cccc(Nc2ncnc3nc[nH]c23)c1`, the figure is > 100 µM (inactive); as for `Cc1ccc(NC(=O)c2ccnc(N3CCCC3)c2)cc1-c1ccsc1C(N)=O`, > 100 µM (inactive).
As for `Cc1ccc(NC(=O)C(C)n2nc([N+](=O)[O-])c(Br)c2C)cc1Cl` (centres undefined), the 50% inhibitory concentration (IC50) is 79 µM.
With `CCCc1cc(C(=O)Nc2ncc(-c3cccc(Br)c3)n2C)n[nH]1` the figure was > 100 µM (inactive); with `Cc1[nH]nc(C(F)(F)F)c1NC(=O)CCn1cc(Cl)c([N+](=O)[O-])n1`, > 100 µM (inactive).
With `Cc1ncsc1CNc1cnc(-c2ccc3c(c2)OCCO3)c(-c2cnn(C)c2)c1` the figure was > 100 µM (inactive).
As for `CCN(CC)c1ccc(S(=O)(=O)N(CC)CC)c2nonc12`, the figure is > 100 µM (inactive); as for `C=CC[C@@H]1CC=C[C@@H](C)N1C(=O)CCc1nnc(-c2ccc3c(c2)OCO3)o1`, > 100 µM (inactive).
Take `COc1ccc(C(=O)Nc2ccc(NC(=O)CO)cc2)cc1`: the IC50 was > 100 µM (inactive).
With `NCc1ccc2c(Cl)cc(Cl)c(O)c2n1` the figure was 25 µM; with `COc1cc(C2SCC(=O)Nc3c2c(C)nn3-c2nc3ccccc3s2)cc(OC)c1O` (centres undefined), > 100 µM (inactive); with `O=C(Nc1cccc(S(=O)(=O)Nc2ccc(Br)cc2)c1)c1ccc([N+](=O)[O-])s1`, 16 µM.
As to `COc1ccc(C(=O)Nc2c(C)nn(COc3cccc(C(F)(F)F)c3)c2C)cc1`, the IC50 was > 100 µM (inactive).
With `Oc1c(-c2n[nH]c(CCc3ccccc3)n2)ncc2cccnc12` the figure was 40 µM.
For the molecule `Nc1cc(-c2ccc3ncnc(N4CCOCC4)c3c2)cnc1N`, the IC50 is > 100 µM (inactive).
As to `CC(C)c1cc(Nc2cc(Cc3ccccc3)nc(NC3CCC(O)CC3)n2)n[nH]1` (centres undefined), the concentration for half-maximal inhibition (IC50) is 32 µM.
Take `COc1cc(NC(=O)Nc2cccc(CNC(=O)OC3CCCCC3)c2)ccc1-c1cnco1`: the IC50 is 40 µM.
Turning to `c1cc(-c2ncc(-c3ccn[nH]3)s2)ccn1`, the IC50 is > 100 µM (inactive).
In the case of `c1ccc2c(CCOc3nccnc3-c3ccncc3)c[nH]c2c1`, the IC50 was > 100 µM (inactive).
As for `CN(C)S(=O)(=O)c1ccc(-c2cnc(N)c(-c3nc4ccc(F)cc4[nH]3)c2)cc1`, the IC50 was > 100 µM (inactive).
In the case of `CCOC(=O)c1noc(N)c1-c1ccccc1`, the IC50 was > 100 µM (inactive).
As for `Cc1cc(-c2cccc3ccccc23)nc2nc(N)nc(N)c12`, the IC50 is 50 µM.
With `O=C(CN(Cc1ccccn1)Cc1ccccn1)NCc1ccc(-c2csnn2)cc1`, the half-maximal inhibitory concentration (IC50) was 25 µM.
As for `CNc1cncc(C2CCCN2C(=O)Cc2ccc3ccccc3c2)n1` (centres undefined), the figure is > 100 µM (inactive); as for `CN(C)c1ccc(-c2cc3nccnc3c(OC[C@H]3CCCNC3)n2)cn1`, 63 µM; as for `Nc1nc(-c2ccccn2)nc(-n2nc(-c3ccccc3)cc2N)n1`, 10 µM.
`CCC(=O)N1N=C(c2ccc3c(c2)CCCC3)Sc2c1ncn2C(=O)CC`: the IC50 was > 100 µM (inactive).
With `O=C(NCCc1ccccc1Cl)c1cccn1-c1cccnc1` the figure was > 100 µM (inactive).
With `CCC(CC)C(=O)Nc1ccc(-c2nnc(-c3ccc(OC)cc3)o2)cc1` the figure was > 100 µM (inactive); with `CCOc1ccc(NC(=O)C=Cc2ccc(CC)o2)cc1`, 79 µM.
With `O=C(NCCNc1noc(-c2ccc([N+](=O)[O-])cc2)n1)c1ccc(Cl)cc1`, the IC50 was > 100 µM (inactive).
As for `O=C(Cn1cnc2c(-c3ccccc3)csc2c1=O)N1CCCCC1`, the figure is > 100 µM (inactive).
As for `O=C(NCC(c1cccs1)N1CCOCC1)c1ccc([N+](=O)[O-])o1` (centres undefined), the figure is 20 µM.
As for `Cc1cc(=O)n2nc(Oc3ccc(C#N)cc3Cl)sc2n1`, the figure is 40 µM; as for `COc1ccc(Nc2nc(NC3CCC(O)CC3)ncc2Br)c(C(N)=O)c1` (centres undefined), > 100 µM (inactive); as for `O=[N+]([O-])c1cccc(Nc2cncc(-c3ccccc3CO)c2)c1`, > 100 µM (inactive).
Consider `CC(C)c1nn(-c2nc(N)nc(-c3ccccn3)n2)c(N)c1C1CCCCC1`, for which the IC50 is 20 µM.
Regarding `O=C(CN(Cc1ccccn1)Cc1ccccn1)NC1Cc2ccccc2C1`, the IC50 was > 160 µM (inactive).
With `CN(C)S(=O)(=O)c1cccc(CSc2nnc(-c3ccc4c(c3)OCO4)o2)c1` the figure was > 100 µM (inactive); with `CC(CCc1ccccc1)NC(=O)CN(Cc1ccccn1)Cc1ccccn1` (centres undefined), > 160 µM (inactive).
Turning to `COCCn1cnc2cc(NC(=O)C3CCCCC3)cc(C(=O)N3CCc4sccc4C3)c21`, the IC50 is > 100 µM (inactive).
For the molecule `CCn1nccc1CN(C)C(=O)C=Cc1ccc(Cl)cc1`, the IC50 is > 100 µM (inactive).
As for `Cn1ccnc1-c1nc(NCc2ccccc2Cl)cc(C2CC2)n1`, the figure is 20 µM; as for `CN(C)Cc1cccc(Nc2nccc(-c3ccc(NCCN)c(C#N)c3)n2)c1`, 25 µM; as for `c1ccc(CNc2cccc3ccncc23)cc1`, > 100 µM (inactive).
In the case of `O=C(NCCc1csc(-c2ccc(F)cc2)n1)c1cccs1`, the IC50 is > 100 µM (inactive).
With `Cc1cc(N(C)C)nc2ccc(Cc3cnc(N)nc3N)cc12` the figure was 32 µM; with `O=C(Nc1ccc(Br)cn1)c1ccc(Cn2cnc([N+](=O)[O-])n2)cc1`, > 100 µM (inactive); with `COc1cccc2sc(CN(C)C(=O)C3CNCCN3c3ccc(F)cc3)c(C)c12` (centres undefined), 13 µM.
Regarding `COc1ccc2ncc(Cl)c(CCN3CC[C@@H](NCc4cc5c(cn4)OCS5)[C@H](O)C3)c2n1`, the IC50 was 50 µM.
Regarding `CN(C(=O)Nc1ccc2c(c1)CCN(C1CCC1)CC2)c1ccc(C#N)cc1`, the IC50 is > 100 µM (inactive).
Turning to `CCCn1c(NC(=O)CCn2cc(Br)cn2)nc2ccccc21`, the IC50 was > 100 µM (inactive).
On to `O=C(Nc1nc(-c2ccccn2)cs1)c1ccc(S(=O)(=O)N2CCCCC2)cc1`, for which the IC50 is 63 µM.
As to `O=C(CSc1ccc(F)cc1)N[C@@H](Cc1cnc[nH]1)C(=O)NCCc1ccccc1`, the IC50 was > 100 µM (inactive).
With `Cc1ccc2onc(Nc3ccnc(Nc4cccc(S(C)(=O)=O)c4)n3)c2c1` the figure was 50 µM.
For `C[C@@H](Oc1cc(-n2cnc3cc(N)ccc32)sc1C(N)=O)c1ccccc1Cl`, the IC50 is 20 µM.
As for `Cc1ccc(NC(=O)c2ccc(Cl)c(NC(=O)c3ccc([N+](=O)[O-])cc3)c2)cc1`, the IC50 is > 100 µM (inactive).
`O=c1[nH]c(NCCCNCc2cc(Br)cc(Br)c2)nc2ccsc12`: the 50% inhibitory concentration (IC50) was 50 µM.
With `N#Cc1ccc(S(=O)(=O)N2CCC3(CCN(c4ccccc4)C3=O)CC2)cc1` the figure was > 100 µM (inactive).
With `C=CCOCC1Cn2nc([N+](=O)[O-])nc2O1` (centres undefined) the figure was > 100 µM (inactive).
Consider `O=c1cc(NCCCNCc2c[nH]c3ccc(Br)cc23)[nH]c2ccccc12`, for which the IC50 is > 100 µM (inactive).
With `Cn1cc(CN2CCN(c3ccc4c(c3)CCN(C(=O)[C@H]3C[C@@H]3c3ccccc3)CC4)CC2)cn1` the figure was 50 µM; with `Cc1ccc(S(=O)(=O)Nc2ccc(CN3CCN(C(=O)c4cccc(C)c4)CC3)cc2)cc1`, > 100 µM (inactive).
With `CC(=Cc1ccccc1)CN1CCC(=O)N(Cc2cccnc2)CC1` the figure was > 100 µM (inactive); with `Cc1cc(C)c(C#N)c(SCC(=O)c2ccc3c(c2)OCO3)n1`, > 100 µM (inactive); with `CC(=O)Nc1nc(-c2cc(C)ccc2C)c(C)s1`, > 100 µM (inactive).
With `CN(Cc1cccnc1)Cc1ccc(N2CCN(C(=O)C3(c4ccc(Cl)cc4)CC3)CC2)nc1` the figure was > 100 µM (inactive); with `Cn1nc(-c2ccc(NC(=O)Cc3ccccc3Cl)cc2)c2c(N)ncnc21`, > 100 µM (inactive).
In the case of `COc1ccc2nccc(NC(=O)C3(OC)CCN(CC(O)c4ccc5c(c4)OCCO5)CC3)c2n1` (centres undefined), the half-maximal inhibitory concentration (IC50) was 40 µM.
With `CC(C)(C)c1csc(NC(=O)c2ccc([N+](=O)[O-])s2)n1` the figure was 50 µM.
On to `Cc1ccc(-c2csc(NC(=O)C=Cc3ccc(S(=O)(=O)N4CCOCC4)cc3)n2)o1`, for which the IC50 was > 100 µM (inactive).
On to `Cc1ccc2c(c1)SC(C(=O)Nc1n[nH]c(-c3ccccn3)n1)C2` (centres undefined), for which the half-maximal inhibitory concentration (IC50) was 25 µM.
As for `O=c1[nH]c(C=Cc2cccc(OCCOc3ccccc3)c2)nc(O)c1[N+](=O)[O-]`, the figure is > 100 µM (inactive); as for `COc1ccc(-c2csc(NC(=O)c3ccc([N+](=O)[O-])s3)n2)cc1`, > 100 µM (inactive).
As for `NC(=O)c1ncc(N[C@@H]2CCCNC2)nc1Nc1cccc(Cl)c1`, the figure is 10 µM.
With `O=C(Nc1ccc(C(F)(F)F)cc1)NC1(C(=O)NCc2ccco2)CCCCC1` the figure was > 100 µM (inactive); with `COc1ccc(OC)c(S(=O)(=O)N(Cc2c(F)cccc2F)[C@@H]2CCN(C#N)C2)c1`, 79 µM.
For the molecule `COc1ccc(Nc2nc(-c3ccccn3)cs2)c(OC)c1`, the IC50 was > 100 µM (inactive).
